Patent US7419812B2, “Sequences encoding PhzO and methods” (The United States of America as represented by the …, priority 2000, dated 2008)
Where “and” joins values, the source holds several entries; their conditions need not be identical. Identical values can stand only once.

Assay: Spontaneous conversion (decarboxylation) of synthetic 2-OH-PCA to 2-OH-PHZ in phosphate buffer, RP-HPLC
Type: physicochemical
Description: Since phenazine-producing Pseudomonas spp. often produce mixtures of phenazine compounds, a generalized HPLC protocol for detection of these metabolites was developed. The protocol utilized a NOVA-PAK C18 reverse-phase Radial-PAK cartridge (4 μm, 8×100 mm) (Waters Corp., Milford, Mass.), and solvent conditions consisting of a 2-min initial wash with 35% ACN/0.1% TFA in H2O followed by a 25-min linear gradient to 100% ACN/0.1% TFA at a flow rate of 1.0 ml/min. The Waters HPLC system included a 710B WISP, 510 pumps, and a 680 automated gradient controller with a 990 photodiode array detector (Waters Corp.). Phenazine compounds were identified by retention time and ultraviolet spectrum. Standards included compounds purified from well-characterized strains (Mavrodi et al, 1998, supra; Pierson and Thomashow, 1992, supra) and chemically-synthesized compounds (PCA, 2-OH-PCA, and 2-OH-PHZ) obtained from Colour Your Enzyme (Bath, Ontario, Canada). […] 2-OHPHZ, which is formed by spontaneous decarboxylation of 2-OH-PCA (see below), was therefore used as an indicator of 2-hydroxyphenazine synthesis and when necessary, the presence of 2-OH-PCA in samples containing PCA was determined by peak purity and spectral analyses using the Waters 991 photodiode array (Waters Corp.).
Expression and Functional Analysis of PhzO. The phzO gene from P. aureofaciens 30-84 was cloned in pUCP26 under the control of the lac promoter and expressed in E. coli JM109. Cells from induced cultures expressing PhzO produced a unique band of approximately 55 kDa on SDS-PAGE gels, in good agreement with the size predicted by nucleotide sequence analysis. Induced cultures of E. coli expressing PhzO converted PCA (0.3 or 0.5 mg/ml in 5% NaHCO3) to 2-OH-PCA and 2-OH-PHZ within 3 h, whereas no such conversion occurred in control cultures harboring only pUCP26 (FIG. 2). […] To determine whether PhzO is responsible for this reaction in P. aureofaciens 30-84, a tetracycline resistance gene was inserted into phzO and introduced in the genome by homologous recombination. […]

2-OH-PHZ as share of the total phenazine present (0.1 M sodium phosphate buffer pH 4.0, 18 h): 0.2% | 2-OH-PCA initially present converted to 2-OH-PHZ (0.1 M sodium phosphate buffer pH 6.0, 18 h): 33% and 33.3% | 2-OH-PCA initially present converted to 2-OH-PHZ (0.1 M sodium phosphate buffer pH 8.0, 18 h): 62% and 64%
SMILES: O=C(O)c1c(O)ccc2nc3ccccc3nc12 [2-OH-PCA, 2-hydroxyphenazine-1-carboxylic acid]
